EC50 data for 4 compounds are collected here from ChEMBL document CHEMBL1150728, “Antimalarial agents, 4. Synthesis of a brusatol analog and biological activity of brusatol-related compounds” (1987).

In brackets after ≈: the same amount, converted by molar mass.

The test system of this test is Plasmodium falciparum. Description: Antimicrobial activity against chloroquine-resistant Plasmodium falciparum Smith. In kind it is functional. The settings on record: read-out: ED50 (the source's name).
Take `COC(=O)[C@]12OC[C@]34[C@H]([C@@H](O)[C@@H]1O)[C@@]1(C)CC(=O)C(O)=C(C)[C@@H]1C[C@H]3OC(=O)[C@H](OC(=O)C=C(C)C)[C@@H]24` [BRUSATOL]: the EC50 worked out at 0.00758 µg/mL (≈ 0.0146 µM).

Consider `COC(=O)[C@@]12OC[C@]34[C@H]([C@@H](O)[C@@H]1O)[C@@]1(C)CC(=O)C(O)=C(C)[C@@H]1C[C@H]3OC(=O)[C@H](O)[C@@H]24` [BRUCEOLIDE], for which the EC50 worked out at 0.0752 µg/mL (≈ 0.172 µM).

Consider `COC(=O)[C@@]12OC[C@]34[C@H]([C@@H](O)[C@@H]1O)[C@@]1(C)C=C(O[C@@H]5O[C@H](CO)[C@@H](O)[C@H](O)[C@H]5O)C(=O)[C@@H](C)[C@@H]1C[C@H]3OC(=O)[C@H](OC(=O)C=C(C)C)[C@@H]24` [BRUCEOSIDE A], for which the EC50 amounted to 0.581 µg/mL (≈ 0.851 µM).

Regarding `CCCCCC/C=C/C(=O)O[C@H]1C(=O)O[C@@H]2C[C@H]3C(C)=C(O)C(=O)C[C@]3(C)[C@H]3[C@@H](O)[C@H](O)[C@@]4(C(=O)OC)OC[C@]32[C@@H]14`, the EC50 worked out at 0.0617 µg/mL (≈ 0.107 µM).
